Holding throughout (assay type): cell-based
For assay [1], the system named is Wnt activity (Sp5-Luc reporter, SW480 colon carcinoma cells). The experiment in a line: Wnt activity screening assay, Sp5-Luc reporter gene in SW480 cells. The conditions noted are these: Homo sapiens; for inhibition at 10 µM: given where EC50 >10 μM, read-out: percent inhibition at 10 μM; for EC50: overnight incubation. The source says: The screening assay for Wnt activity is described as follows. Reporter cell lines can be generated by stably transducing cancer cell lines (e.g., colon cancer) or primary cells (e.g., IEC-6 intestinal cells) with a lentiviral construct that includes a Wnt-responsive promoter driving expression of the firefly luciferase gene.
SW480 colon carcinoma cells were transduced with a lentiviral vector expressing luciferase with a human Sp5 promoter consisting of a sequence of eight TCF/LEF binding sites. SW480 cells stably expressing the Sp5-Luc reporter gene and a hygromycin resistance gene were selected by treatment with 150 μg/mL of hygromycin for 7 days. These stably transduced SW480 cells were expanded in cell culture and used for all further screening activities. Each compound was dissolved in DMSO as a 10 mM stock and used to prepare compound source plates. Serial dilution (1:3, 10-point dose-response curves starting from 10 μM) and compound transfer was performed using the ECHO 550 (Labcyte, Sunnyvale, Calif.) into 384-well white solid bottom assay plates (Greiner Bio-One) with appropriate DMSO backfill for a final DMSO concentration of 0.1%. For Sp5-Luc reporter gene assays, the cells were plated at 4,000 cells/well in 384-well plates with medium containing 1% fetal bovine serum and incubated overnight at 37° C. and 5% CO2. Following incubation, 20 μl of BrightGlo luminescence reagent (Promega) was added to each well of the 384-well assay plates. The plates were placed on an orbital shaker for 2 min and then luminescence was quantified using the Envision (Perkin Elmer) plate reader. Readings were normalized to DMSO only treated cells, and normalized activities were utilized for EC50 calculations using the dose-response log (inhibitor) vs. response-variable slope (four parameters) nonlinear regression feature available in GraphPad Prism 5.0 (or Dotmatics). For EC50 of >10 μM, the percent inhibition at 10 μM is provided.
Background: Reporter assays use an easily measured gene product as a stand-in for the process of interest.

The subject of another assay is SW480 colon cancer cells. The experiment in a line: Cell viability assay (CellTiter-Blue). The following applies: Homo sapiens, 96 h, four days; for inhibition at 10 µM: given where EC50 >10 μM, read-out: percent inhibition at 10 μM. How it is done:
Representative compounds were screened using the following assay procedure to assess the effect on cell viability as described below.
Each compound was dissolved in DMSO as a 10 mM stock and used to prepare compound source plates. Serial dilution (1:3, 8-point dose-response curves from 10 μM to 0.0045 μM) and compound transfer was performed using the ECHO 550 (Labcyte, Sunnyvale, Calif.) into 96-well clear bottom, black-walled plates (Corning-Costar).
Approximately 2×10^3 SW480 colon cancer cells were seeded into each well and allowed to incubate in the presence or absence of compound for four days at 37° C./5% CO2. Eight replicates of DMSO-treated cells served as controls and cells treated with compound were performed in duplicate.
After incubation, 20 μL of CellTiter-Blue (Promega) was added to each well allowed to incubate for approximately 3 hours. This reagent was a buffered solution which contains resazurin, metabolically active cells were able to reduce rezarurin (blue) into resorufin (pink) which was highly fluorescent. This measured fluorescence was used as a readout for cell viability.
After incubation, the plates were read at Ex 560 nm Em 590 nm (Cytation 3, BioTek). Dose-response curves were generated and EC50 concentration values were calculated using non-linear regression curve fit in the GraphPad Prism (San Diego, Calif.) or Dotmatics' Studies Software (Bishops Stortford, UK). For EC50 of >10 μM, the percent inhibition at 10 μM is provided.

Another assay relates to IL-6 (THP-1 cells). Description: IL-6 inhibition in LPS-stimulated THP-1 cells (HTRF). The following applies: Homo sapiens; for EC50: IL-6 in THP-1 cells, LPS 500 ng/mL, 22 hours; for inhibition at 10 µM: given where EC50 >10 μM, IL-6, THP-1 cells, LPS, read-out: percent inhibition at 10 μM. The method, then:
Human monocyte cell line (THP-1 cells; Catalog # TIB-202, ATCC, Manassas, Va.) were cultured in Roswell Park Memorial Institute (RPMI) 1640 Medium (Catalog #21870-100, Buffalo, N.Y.) with 1% L-glutamine, 1% HEPES, 1% Sodium Pyruvate, 2% Sodium Bicarbonate supplemented with 100 units/mL penicillin, 50 μg/mL streptomycin, 2-mercaptoethanol (0.05 mM) [basal medium] and 10% fetal bovine serum (Catalog #16140089, Life Technologies, Carlsbad, Calif.) at 37° C. and 5% CO2.
THP-1 cells were cultured in basal media with 1% FBS for 24 hours before the start of the assay. Each compound was dissolved in DMSO as a 10 mM stock and used to prepare compound source plates. Serial dilution (1:3, 10-point dose-response curves starting from 10 μM) and compound transfer was performed using the ECHO 550 (Labcyte, Sunnyvale, Calif.) into 384-well white low volume assay plates (Greiner Bio-One) with appropriate DMSO backfill for a final DMSO concentration of 0.1%. THP-1 cells were plated at 5000 cells/well in the 384-well plates and incubated at 37° C. for 2 h. 500 ng/mL of LPS was added after 2 hours and cells were incubated for another 22 hours at 37° C. Plates were spun in a centrifuge for 1 minute at […] and a mixture of anti-IL6 XL665, and anti-IL6 Cryptate diluted in reconstitution buffer (Cisbio Inc.) was added to each well. Following incubation for 3 hrs at room temperature, Homogeneous Time-Resolved Fluorescence (HTRF) was measured using the Envision (Perkin Elmer) at 665 nm and […]. The ratio of fluorescence at 665 nm to 620 nm was used as a readout for IL6 quantification. All samples were processed in duplicate. Readings were normalized to DMSO treated cells and normalized activities were utilized for EC50 calculations using the dose-response log (inhibitor) vs. response-variable slope (four parameters) nonlinear regression feature available in GraphPad Prism 5.0 (or Dotmatics). For EC50 of >10 μM, the percent inhibition at 10 μM is provided.
On the technique in general: In TR-FRET formats the signal depends on donor and acceptor labels being close together.

As to `CN(C)Cc1cncc(-c2cc3c(-c4cc5c(-c6ccccc6F)ccnc5[nH]4)n[nH]c3cn2)c1` [Compound 69, 1-(5-(3-(4-(2-Fluorophenyl)-1H-pyrrolo[2,3-b]pyridin-2-yl)-1H-pyrazolo [3,4-c]pyridin-5-yl)pyridin-3-yl)-N,N-dimethylmethanamine], the inhibition (commonly the relative decrease from the control value, in per cent) at 10 µM in assay [1] was 11.3%; with SW480 colon cancer cells it was 13.2%; in the assay with IL-6 (THP-1 cells), 17.4%. Further, the EC50 (in assay [1]; in the assay with SW480 colon cancer cells; in the assay with IL-6 (THP-1 cells)) was above 10 µM throughout.

On to `CN1CCN(c2ccnc3[nH]c(-c4n[nH]c5cnc(-c6cncc(N(C)C)c6)cc45)cc23)CC1` [Compound 231, N,N-Dimethyl-5-(3-(4-(4-methylpiperazin-1-yl)-1H-pyrrolo[2,3-b]pyridin-2-yl)-1H-pyrazolo[3,4-c]pyridin-5-yl)pyridin-3-amine], for which the inhibition at 10 µM in assay [1] came out at 8.2%; in the assay with SW480 colon cancer cells it was 9.2%; in the assay with IL-6 (THP-1 cells), 3.7%. For the same molecule, the concentration for a half-maximal effect (EC50) (in assay [1]; with SW480 colon cancer cells; in the assay with IL-6 (THP-1 cells)) was above 10 µM in each case.

As for `CC(C)CC(=O)Nc1cncc(-c2cc3c(-c4cc5cccnc5[nH]4)n[nH]c3cn2)c1` [Compound 254, N-(5-(3-(1H-Pyrrolo[2,3-b]pyridin-2-yl)-1H-pyrazolo[3,4-c]pyridin-5-yl)pyridin-3-yl)-3-methylbutanamide], the inhibition at 10 µM in assay [1] worked out at 12.4%; in the assay with SW480 colon cancer cells, 20.2%. Besides, the values for the 50% effective concentration (EC50) (in assay [1]; in the assay on SW480 colon cancer cells; in the assay on IL-6 (THP-1 cells)) were above 10 µM, above 10 µM and 0.529 µM, respectively.

As to `O=C(Nc1cncc(-c2cc3c(-c4cc5cccnc5[nH]4)n[nH]c3cn2)c1)c1ccccc1` [Compound 263, N-(5-(3-(1H-Pyrrolo[2,3-b]pyridin-2-yl)-1H-pyrazolo[3,4-c]pyridin-5-yl)pyridin-3-yl)benzamide], the inhibition at 10 µM in assay [1] is 17%; with SW480 colon cancer cells, 22.5%; with IL-6 (THP-1 cells), 39.2%. Besides, the EC50 (in assay [1]; with SW480 colon cancer cells; with IL-6 (THP-1 cells)) was above 10 µM each time.

Consider `c1cc(N2CCCCC2)c2cc(-c3n[nH]c4cnc(C5CCNCC5)cc34)[nH]c2n1` [Compound 601, 3-(4-(Piperidin-1-yl)-1H-pyrrolo[2,3-b]pyridin-2-yl)-5-(piperidin-4-yl)-1H-pyrazolo[3,4-c]pyridine], for which the values for the inhibition at 10 µM (in assay [1]; in the assay on SW480 colon cancer cells; in the assay on IL-6 (THP-1 cells)) were 0%, 12% and 3%, respectively. The EC50 (in assay [1]; in the assay with SW480 colon cancer cells; in the assay on IL-6 (THP-1 cells)) was above 10 µM each time.

For `CN1CCN(c2ccnc3[nH]c(-c4n[nH]c5cnc(-c6cncc(NC(=O)CC7CCNCC7)c6)cc45)cc23)CC1` [Compound 641, N-(5-(3-(4-(4-Methylpiperazin-1-yl)-1H-pyrrolo[2,3-b]pyridin-2-yl)-1H-pyrazolo[3,4-c]pyridin-5-yl)pyridin-3-yl)-2-(piperidin-4-yl)acetamide], the inhibition at 10 µM in assay [1] was determined as 8%; in the assay on SW480 colon cancer cells it was 13.1%; in the assay with IL-6 (THP-1 cells) it was 29.6%. Also, the EC50 (in assay [1]; in the assay with SW480 colon cancer cells; with IL-6 (THP-1 cells)) was above 10 µM each time.

On to `CN(C)CCNc1cc(F)cc(-c2ccnc3[nH]c(-c4n[nH]c5cnc(-c6cncnc6)cc45)cc23)c1` [Compound 475, N^1-(3-Fluoro-5-(2-(5-(pyrimidin-5-yl)-1H-pyrazolo[3,4-c]pyridin-3-yl)-1H-pyrrolo[2,3-b]pyridin-4-yl)phenyl)-N^2,N^2-dimethylethane-1,2-diamine], for which the inhibition at 10 µM in assay [1] came out at 10.9%; in the assay on SW480 colon cancer cells it was 17%; in the assay on IL-6 (THP-1 cells), 6.3%. The half-maximal effective concentration (EC50) (in assay [1]; in the assay on SW480 colon cancer cells; in the assay on IL-6 (THP-1 cells)) was above 10 µM throughout.

The record behind these values is US10285982B2, “3-(1H-pyrrolo[2,3-B]pyridin-2-yl)-1H-pyrazolo[3,4-C]pyridines and therapeutic uses thereof” (Samumed, LLC, priority 2015, dated 2019).
